Reference: the NIST ThermoML archive (doi:10.1016/j.jct.2015.05.004)

Assay: xn = mol fraction of the nth substance listed
Settings: 100 kPa, Liquid; for speed of sound: Frequency=3 MHz, Sing-around technique in a fixed-path interferometer; for mass density: Vibrating tube method

CCCCn1cc[n+](C)c1.N#C[S-] [1-butyl-3-methylimidazolium thiocyanate] + CCC(=O)O
Settings	mass density, 293.15 K [kg/m3]	mass density, 298.15 K [kg/m3]	mass density, 303.15 K [kg/m3]	mass density, 308.15 K [kg/m3]	mass density, 313.15 K [kg/m3]	speed of sound, 293.15 K [m/s]	speed of sound, 298.15 K [m/s]	speed of sound, 303.15 K [m/s]	speed of sound, 308.15 K [m/s]	speed of sound, 313.15 K [m/s]
x1 = 0.0698	1015.42	1010.77	1006.13	1001.49	996.86	1260.2	1243	1225.7	1208.3	1191
x1 = 0.1444	1031.52	1027.32	1023.13	1018.95	1014.78	1361.3	1345.7	1329.8	1313.9	1298.1
x1 = 0.2223	1042.18	1038.27	1034.37	1030.48	1026.6	1445.8	1431.2	1416.3	1401.5	1386.8
x1 = 0.306	1049.78	1046.09	1042.4	1038.73	1035.07	1514.4	1500.5	1486.3	1472.3	1458.3
x1 = 0.3989	1055.66	1052.15	1048.65	1045.17	1041.69	1571.4	1558.1	1544.6	1531.1	1517.8
x1 = 0.5022	1060.19	1057.09	1053.43	1050.09	1046.79	1619.3	1606.6	1593.7	1580.8	1568.1
x1 = 0.6068	1064.02	1061.09	1057.85	1054.64	1051.44	1662	1649.6	1637	1624.6	1612.2
x1 = 0.7166	1067.2	1064.46	1061.32	1058.2	1055.09	1700.9	1688.8	1676.4	1664.2	1652.1
x1 = 0.8561	1070.36	1067.84	1064.79	1061.76	1058.74	1742.8	1730.9	1718.9	1707	1695.1
x1 = 0.9209	1071.7	1069.3	1066.3	1063.3	1060.33	1761.8	1750	1738.1	1726.3	1714.6
x1 = 1	1072.74	1070.34	1067.37	1064.42	1061.47	1778.8	1767.2	1755.4	1743.7	1732.1

CCC(=O)O [propanoic acid] + CCCCn1cc[n+](C)c1.N#C[S-]
x2 = 0
Settings	mass density [kg/m3]	speed of sound [m/s]
293.15 K	993.33	1164.7
298.15 K	987.94	1146
303.15 K	982.54	1127.1
308.15 K	977.14	1108.3
313.15 K	971.75	1089.6

CCCCn1cc[n+](C)c1.N#C[S-] [1-butyl-3-methylimidazolium thiocyanate] + CC(=O)O
Settings	mass density, 293.15 K [kg/m3]	mass density, 298.15 K [kg/m3]	mass density, 303.15 K [kg/m3]	mass density, 308.15 K [kg/m3]	mass density, 313.15 K [kg/m3]	speed of sound, 293.15 K [m/s]	speed of sound, 298.15 K [m/s]	speed of sound, 303.15 K [m/s]	speed of sound, 308.15 K [m/s]	speed of sound, 313.15 K [m/s]
x1 = 0.058	1064.97	1060.08	1055.2	1050.32	1045.44	1270.5	1252.4	1235.9	1218.7	1202
x1 = 0.1206	1070.89	1066.45	1062	1057.56	1053.12	1369.6	1353.9	1338	1322.1	1306.4
x1 = 0.1878	1072.93	1069.2	1064.96	1060.77	1056.64	1448.3	1433.8	1419	1404.2	1389.4
x1 = 0.2632	1073.93	1070.07	1066.21	1062.35	1058.51	1520	1506.3	1492.2	1478.1	1464.2
x1 = 0.3498	1073.95	1070.59	1066.92	1063.27	1059.63	1576.8	1563.6	1550.1	1536.6	1523.3
x1 = 0.4503	1074.04	1070.98	1067.53	1064.1	1060.67	1626.5	1613.6	1600.6	1587.6	1574.8
x1 = 0.5559	1073.89	1070.99	1067.68	1064.39	1061.21	1667	1658.3	1641.9	1629.3	1616.9
x1 = 0.6831	1073.66	1071.08	1067.9	1064.74	1061.59	1707.6	1695.4	1683.1	1670.8	1658.6
x1 = 0.8282	1073.35	1070.87	1067.81	1064.75	1061.71	1744.3	1732.4	1720.3	1708.4	1696.4
x1 = 0.9042	1073.19	1070.77	1067.74	1064.74	1061.75	1760.7	1749	1737	1725.2	1713.4
x1 = 1	1072.74	1070.34	1067.37	1064.42	1061.47	1778.8	1767.2	1755.4	1743.7	1732.1

CC(=O)O [acetic acid] + CCCCn1cc[n+](C)c1.N#C[S-]
x2 = 0
Settings	mass density [kg/m3]	speed of sound [m/s]
293.15 K	1049.75	1152.7
298.15 K	1044.13	1135.7
303.15 K	1038.48	1118.4
308.15 K	1032.83	1101.2
313.15 K	1027.18	1084
